# According to US6264916A, “N,N-dimethyldiatrizoic acid and its conjugates as hepatobiliary agents for x-ray CT imaging” (Bracco Research, USA, priority 2000, dated 2001):
# Where two headings read alike, the source gives them in different places.
# How the values were obtained:
# [1] = Biodistribution studies in mice (radioiodinated compounds, % ID/g-tissue); assay type: in vivo; settings: tracer level, but MDTA-Na 0.18M and MDTA-NMG 0.19M; for tissue uptake at 1 min / tissue uptake at 5 min / tissue uptake at 1 h: mouse, iv; for tissue uptake at 1 h / Biodistribution, Blood 60' / Biodistribution, Kidney 60' / Biodistribution, Liver 60' / Biodistribution, Sm/Lrg. Intestine 60': 60'; for Biodistribution, Blood 5' / Biodistribution, Kidney 5' / Biodistribution, Liver 5' / Biodistribution, Sm/Lrg. Intestine 5': 5 min; for Biodistribution, Kidney 1' / Biodistribution, Blood 1' / Biodistribution, Liver 1' / Biodistribution, Sm/Lrg. Intestine 1': 1 min
# Protocol: All of the new analogs were radiolabeled in order to determine their physical and biological properties. The iodinated compounds were exchange-labeled by heating with Na^125 I in the presence of CuSO4 and Na2 S2 O5 in glacial acetic acid at 135-150° C. for 1 h, followed by HPLC purification using a nucleosil C18 column and CH3 CN--H2 O containing 0.1% TFA as an eluent. In some cases (e.g. the compound of Example 12) the radioiodination was carried out by heating with Na*I in HOAc--NaOAc (pH 4.6) at 100° C. for 15 min. In all cases radiolabeled compounds of acceptable radiochemical purity and specific activity were obtained.
# The compound of formula I, N,N-dimethyl-diatrizoic acid, was similarly radiolabeled for biological studies.
# a) For intravenous administration the preferred vehicle for the compounds of formula I, II and III is bovine serum albumin, however, other physiologically acceptable vehicles may also be used.
# Biodistribution studies were conducted in mice and the results are given in Table I. X-Ray CT images of MDTA in mice and rats indicate that these hydrophobic diatrizoate analogs may be of promise for liver imaging.
# [2] = Water solubility of MDTA salts; assay type: physicochemical
# Protocol: The compound of formula I, N,N-Dimethyldiatrizoic acid (I') (hereinafter sometimes referred to as MDTA) was synthesized, as in reference H. Holtermann et al., U.S. Pat. No. 3,178,673, Apr. 13, 1965, by the N-methylation of diatrizoic acid (IV) using either methyl iodide or dimethyl sulfate in aqueous media at alkaline pH to obtain pure MDTA (>99.9% purity) as a white crystalline solid (m.p. 185° C.).
# [3] = blood, blood, read-out: Biodistribution, Blood 1'
# [4] = blood, blood, read-out: Biodistribution, Blood 5'
# [5] = blood, blood, read-out: Biodistribution, Blood 60'
# [6] = kidney, kidney, read-out: Biodistribution, Kidney 1'
# [7] = kidney, kidney, read-out: Biodistribution, Kidney 5'
# [8] = kidney, kidney, read-out: Biodistribution, Kidney 60'
# [9] = liver, liver, read-out: Biodistribution, Liver 1'
# [10] = liver, liver, read-out: Biodistribution, Liver 5'
# [11] = liver, liver, read-out: Biodistribution, Liver 60'
# [12] = small/large intestine, small/large intestine, read-out: Biodistribution, Sm/Lrg. Intestine 1'
# [13] = small/large intestine, small/large intestine, read-out: Biodistribution, Sm/Lrg. Intestine 5'
# [14] = small/large intestine, small/large intestine, read-out: Biodistribution, Sm/Lrg. Intestine 60'
SMILES,"tissue uptake at 1 min [1, 3] [%ID/g]","tissue uptake at 5 min [1, 4] [%ID/g]","tissue uptake at 1 h [1, 5] [%ID/g]","tissue uptake at 1 min [1, 6] [%ID/g]","tissue uptake at 5 min [1, 7] [%ID/g]","tissue uptake at 1 h [1, 8] [%ID/g]","tissue uptake at 1 min [1, 9] [%ID/g]","tissue uptake at 5 min [1, 10] [%ID/g]","tissue uptake at 1 h [1, 11] [%ID/g]","tissue uptake at 1 min [1, 12] [%ID/g]","tissue uptake at 5 min [1, 13] [%ID/g]","tissue uptake at 1 h [1, 14] [%ID/g]","Biodistribution, Blood 5' ([1]; blood) [% ID/g-tissue]","Biodistribution, Kidney 1' ([1]; kidney) [% ID/g-tissue]","Biodistribution, Kidney 60' ([1]; kidney, 60 min) [% ID/g-tissue]","Biodistribution, Liver 60' ([1]; liver, 60 min) [% ID/g-tissue]",also measured
"CC(=O)N(C)c1c(I)c(C(=O)Nc2ccc(CCCCCCC(=O)O)cc2)c(I)c(N(C)C(C)=O)c1I [Example F7-P-MDTA, 4-[[[3,5-Bis(acetylmethylamino)-2,4,6-triiodophenyl]carbonyl]amino]benzeneheptanoic acid]",2.38,0.57,0.15,4.28,2.94,0.3,39.5,37.2,5.02,1.38,6.2,26.8,,,,,
"CC(=O)N(C)c1c(I)c(C(=O)Nc2ccc(CCCCCCCCCCC(=O)O)cc2)c(I)c(N(C)C(C)=O)c1I [Example F11-P-MDTA, 4-[[[3,5-Bis(acetylmethylamino)-2,4,6-triiodophenyl]carbonyl]amino]benzeneundecanoic acid]",9.14,0.74,0.08,6.21,3.63,0.1,57.9,60.1,2.96,1.14,3.06,38.2,,,,,
CC(=O)N(C)c1c(I)c(C(=O)NCCCCCCCCCCCC(=O)O)c(I)c(N(C)C(C)=O)c1I [Example F12-DP-MDTA],2.38,0.39,0.04,9.89,5.72,0.07,28.9,16.6,2.17,2.28,11.6,28,,,,,

# Now from value to compound, other results behind:
"tissue uptake at 1 min [1, 3] [%ID/g]","tissue uptake at 5 min [1, 4] [%ID/g]","tissue uptake at 1 h [1, 5] [%ID/g]","tissue uptake at 1 min [1, 6] [%ID/g]","tissue uptake at 5 min [1, 7] [%ID/g]","tissue uptake at 1 h [1, 8] [%ID/g]","tissue uptake at 1 min [1, 9] [%ID/g]","tissue uptake at 5 min [1, 10] [%ID/g]","tissue uptake at 1 h [1, 11] [%ID/g]","tissue uptake at 1 min [1, 12] [%ID/g]","tissue uptake at 5 min [1, 13] [%ID/g]","tissue uptake at 1 h [1, 14] [%ID/g]","Biodistribution, Blood 5' ([1]; blood) [% ID/g-tissue]","Biodistribution, Kidney 1' ([1]; kidney) [% ID/g-tissue]","Biodistribution, Kidney 60' ([1]; kidney, 60 min) [% ID/g-tissue]","Biodistribution, Liver 60' ([1]; liver, 60 min) [% ID/g-tissue]",SMILES,also measured
24.6,4.28,0.12,8.28,5.1,0.34,46.4,76.3,6.18,2.13,4.85,43.7,,,,,"CC(=O)N(C)c1c(I)c(C(=O)Nc2ccc(CCCCCCCCCCCCCCC(=O)O)cc2)c(I)c(N(C)C(C)=O)c1I [Example F15-P-MDTA, 4-[[[3,5-Bis(acetylmethylamino)-2,4,6-triiodophenyl]carbonyl]amino]benzenepentadecanoic acid]",
36.7,13.2,0.68,5.56,5.45,2.67,17.2,24.7,10.4,1.05,2.4,14.4,,,,,CC(=O)N(C)c1c(I)c(C(=O)Nc2ccc(CCCCCCCCCCCCCCCCCCC(=O)O)cc2)c(I)c(N(C)C(C)=O)c1I [Example F19-P-MDTA],
4.56,,,,21.5,,15.8,15.4,,1.5,4.55,13.3,1.21,37.57,0.18,0.85,"CC(=O)N(C)c1c(I)c(C(=O)O)c(I)c(N(C)C(C)=O)c1I [MDTA, 3,5-Bis-(Acetylmethylamino)-2,4,6-triiodobenzoic acid]","Biodistribution, Blood 60' ([1]; blood): 0.00 % ID/g-tissue"
,,,,,,,,,,,,3.66,13.53,0.81,2.13,CC(=O)N(C)c1c(I)c(C(=O)O)c(I)c(N(C)C(C)=O)c1I [MDTA-NMG],"Biodistribution, Blood 1' ([1]; blood): 6.63 % ID/g-tissue; Biodistribution, Blood 60' ([1]; blood, 60 min): 0.12 % ID/g-tissue; Biodistribution, Kidney 5' ([1]; kidney): 12.65 % ID/g-tissue; Biodistribution, Liver 1' ([1]; liver): 12.30 % ID/g-tissue; Biodistribution, Liver 5' ([1]; liver): 16.23 % ID/g-tissue; Biodistribution, Sm/Lrg. Intestine 1' ([1]; small/large intestine): 2.03 % ID/g-tissue; Biodistribution, Sm/Lrg. Intestine 5' ([1]; small/large intestine): 3.80 % ID/g-tissue; Biodistribution, Sm/Lrg. Intestine 60' ([1]; small/large intestine, 60 min): 16.48 % ID/g-tissue; Water solubility ([2]; listed as N-methyl-glucamine (NMG) salt): ~ 1.3 M"
,,0.16,,,,,,,,,,3.03,12.97,0.96,2.42,CC(=O)N(C)c1c(I)c(C(=O)O)c(I)c(N(C)C(C)=O)c1I [MDTA-Na],"Biodistribution, Blood 1' ([1]; blood): 6.21 % ID/g-tissue; Biodistribution, Kidney 5' ([1]; kidney): 12.72 % ID/g-tissue; Biodistribution, Liver 1' ([1]; liver): 13.23 % ID/g-tissue; Biodistribution, Liver 5' ([1]; liver): 17.56 % ID/g-tissue; Biodistribution, Sm/Lrg. Intestine 1' ([1]; small/large intestine): 1.81 % ID/g-tissue; Biodistribution, Sm/Lrg. Intestine 5' ([1]; small/large intestine): 3.92 % ID/g-tissue; Biodistribution, Sm/Lrg. Intestine 60' ([1]; small/large intestine, 60 min): 17.02 % ID/g-tissue; Water solubility ([2]; listed as sodium salt): ~ 0.35 M"
